According to US9868692B2, “Compounds and compositions for intracellular delivery of therapeutic agents” (MODERNATX, Inc., priority 2015, dated 2018):

Key:
[1] = Particle size, polydispersity index (and zeta potential) of nanoparticle compositions, Zetasizer Nano ZS; type: physicochemical; details: Table 1A formulations
Outline: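 Particle size and polydispersity index were measured by dynamic light scattering on a Zetasizer Nano ZS in 1×PBS. Zeta potential was measured in 15 mM PBS.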

[2] = Encapsulation efficiency of RNA, QUANT-IT RIBOGREEN RNA assay; type: physicochemical; details: Table 1A formulations
Outline: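 Nanoparticle samples at about 5 μg/mL RNA in TE buffer pH 7.5 were mixed with TE or with a 2% Triton X-100 solution, incubated 15 min at 37 °C, then stained with RiboGreen diluted 1:100. Fluorescence was read at about 480/520 nm and blank-subtracted. Free RNA % was taken as intact over Triton-disrupted fluorescence.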

hEPO mRNA expression = assay: hEPO expression after intravenous administration to mice; type: in vivo; details: i.v., 0.5 mpk, 3, 6 and 24 hours
Description: Sample formulations of nanoparticle compositions including different lipids are generally first evaluated according to Luc expression in vivo. The activity of several such compositions was further evaluated using an mRNA encoding hEPO. Nanoparticle compositions including Compounds 6, 18, 25, 30, 108-112, 60, and 122, or MC3 were prepared according to Example 2.
(§1) The expression of hEPO and cytokine induction in mice intravenously administered a nanoparticle composition at a dose of 0.5 mpk were measured at 3, 6, and 24 hours. […] The expression of hEPO in mice intramuscularly administered a nanoparticle composition from Table 1B at a dose of 0.01 mpk were measured at 3, 6, and 24 hours. […] (see also FIG. 9.)

[3] = Residual lipid level in liver of rats (UPLC-MS quantification); type: in vivo; details: rat
[4] = Residual lipid level in spleen of rats (UPLC-MS quantification); type: in vivo; details: 0.2 mg/kg, rat, intravenous, 0.2 mpk
IL-6 = assay: Cytokine induction (IL-6) after intravenous administration to mice; type: in vivo; details: i.v., 0.5 mpk, 6 hours (Table 7)
Excerpt: The introduction of foreign material into a mammalian body induces an innate immune response that promotes cytokine production. Such immune responses to, for example, nanoparticle compositions including therapeutic and/or prophylactics, are undesirable. The induction of certain cytokines is thus measured to evaluate the […] of nanoparticle compositions. The concentrations of various cytokines in mice upon intravenous administration of nanoparticle compositions presented in Table 1A at a dosage of 0.5 mpk was measured at 6 hours. The standard MC3 formulation and a PBS control were also tested. As is evident in Table 7, IL-6 induction was highest for compositions including Compounds 1, 3, 9, 19, and 26, while IP-10 induction was highest for compositions including Compounds 3, 4, 7, 20, and 26. IL-6 induction was lowest for compositions including Compounds 4, 11, 12, and 28. IP-10 induction was lowest for compositions including Compounds 10, 11, 12, 13, 15, 17, and 18.
as §1

With `CCCCCCCCCOC(=O)CCCCCCCN(CCO)CCCCCCCC(=O)OC(CCCCCCCC)CCCCCCCC` [Compound 18, Heptadecan-9-yl 8-((2-hydroxyethyl)(8-(nonyloxy)-8-oxooctyl)amino)octanoate] the PDI [1] was 0.042, the “EE (%)” value [2] was 97.50% and the “hEPO concentrations versus MC3 formulations at each time point” value (hEPO mRNA expression) was “higher hEPO concentrations than MC3 formulations”. It also gave a concentration at 0.25 h ([3]; liver, 0.2 mg/kg, intravenous, 0.2 mpk, 0.25 h) of 5370 ng/g, a concentration at 0.5 h ([3]; liver, 0.2 mg/kg, intravenous, 0.2 mpk, 0.5 h) of 6020 ng/g and a concentration at 1 h ([3]; liver, 0.2 mg/kg, intravenous, 0.2 mpk, 1 h) of 6050 ng/g. It also gave a concentration at 2 h ([3]; liver, 0.2 mg/kg, intravenous, 0.2 mpk, 2 h) of 2040 ng/g, a concentration at 4 h ([3]; liver, 0.2 mg/kg, intravenous, 0.2 mpk, 4 h) of 839 ng/g and a concentration at 8 h ([3]; liver, 0.2 mg/kg, intravenous, 0.2 mpk, 8 h) of 296 ng/g. For the same compound, the concentration at 24 h ([3]; liver, 0.2 mg/kg, intravenous, 0.2 mpk, 24 h) was 5 ng/g, the concentration at 48 h ([3]; liver, 0.2 mg/kg, intravenous, 0.2 mpk, 48 h, read-out: Lipid level in liver) was 5370 ng/g and the “% Lipid Remaining in liver, 48 h 2 mpk” value ([3]; 2 mpk, 48 h, assuming 300 g rat and 15 g liver) was 0.018%. It also gave a concentration at 0.25 h ([4]; 0.25 h) of 1230 ng/g, a concentration at 0.5 h ([4]; 0.5 h) of 2020 ng/g and a concentration at 1 h ([4]; 1 h) of 3210 ng/g. The concentration at 2 h ([4]; 2 h) was 3070 ng/g, the concentration at 4 h ([4]; 4 h) was 3770 ng/g and the concentration at 8 h ([4]; 8 h) was 1340 ng/g. The concentration at 24 h ([4]; 24 h) was 271 ng/g and the concentration at 48 h ([4]; 48 h, read-out: Lipid level in spleen) was 92 ng/g.

With `CCCCCCCCCOC(=O)CCCCCCCN(CCO)CCCCCCCCCC(=O)OC(CCCCCCCC)CCCCCCCC` [Compound 23, Heptadecan-9-yl 10-((2-hydroxyethyl)(8-(nonyloxy)-8-oxooctyl)amino) decanoate] the IL-6 (IL-6) was 94.00.
